The results in this text go back to article PMC12518996 (Frontiers in Pharmacology, 2025).

Common to all, as to assay type: in vitro ADME
Data set [1] concerns the target T1, FMO3 (Homo sapiens, UniProt P31513).
T1 sequence (P31513 1-532): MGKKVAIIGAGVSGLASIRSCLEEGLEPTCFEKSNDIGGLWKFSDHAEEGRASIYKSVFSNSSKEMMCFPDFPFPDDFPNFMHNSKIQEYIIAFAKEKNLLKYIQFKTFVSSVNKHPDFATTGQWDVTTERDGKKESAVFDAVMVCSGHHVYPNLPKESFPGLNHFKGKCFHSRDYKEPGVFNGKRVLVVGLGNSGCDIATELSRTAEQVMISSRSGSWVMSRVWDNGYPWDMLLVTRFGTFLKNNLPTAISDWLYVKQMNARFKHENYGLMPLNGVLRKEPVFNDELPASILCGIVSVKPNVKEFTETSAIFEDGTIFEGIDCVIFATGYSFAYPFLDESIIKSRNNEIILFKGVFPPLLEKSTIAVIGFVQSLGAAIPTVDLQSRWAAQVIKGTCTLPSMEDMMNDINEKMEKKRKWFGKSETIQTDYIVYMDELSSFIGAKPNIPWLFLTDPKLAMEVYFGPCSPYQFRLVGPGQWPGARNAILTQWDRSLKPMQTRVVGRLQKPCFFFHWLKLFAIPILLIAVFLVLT
The data set is described as follows: Metabolite formation by recombinant human FMO3. The note with it: trazodone 4 μM; 37 °C, 40 min.

Data set [2] concerns CYP2D18. Put plainly: Metabolite formation by recombinant rat CYP2D18. The note with it: trazodone 4 μM; NADPH; 37 °C, 40 min. On the procedure:
(§1) To confirm the role of individual CYP isoforms in metabolizing trazodone, recombinant human and rat CYP enzymes were employed in separate incubations. […] Each reaction was terminated with acetonitrile, centrifuged, and the supernatant was analyzed by identical UHPLC-Orbitrap setup outlined in §2.2, allowing direct comparison of metabolite spectra across all in-vitro systems. […] This procedure helped confirm the contributions of individual isoforms to specific biotransformation reactions.

For data set [3], the target named is CYP2D6 (Homo sapiens, UniProt P10635). Put plainly: Metabolite formation by recombinant human CYP2D6. The note with it: trazodone 4 μM; NADPH; 37 °C, 40 min. On the procedure:
as §1

The target of data set [4] is CYP3A5 (Homo sapiens, UniProt P20815). The data set is described as follows: Metabolite formation by recombinant human CYP3A5. The note with it: trazodone 4 μM; NADPH; 37 °C, 40 min. As for the experimental part: Each reaction was terminated with acetonitrile, centrifuged, and the supernatant was analyzed by identical UHPLC-Orbitrap setup outlined in §2.2, allowing direct comparison of metabolite spectra across all in-vitro systems.

For data set [5], the target named is CYP2E1 (Homo sapiens, UniProt P05181). Put plainly: Metabolite formation by recombinant human CYP2E1. The note with it: trazodone 4 μM; NADPH; 37 °C, 40 min. As for the experimental part: as §1
The target in data set [6] is T2, MAOB (Homo sapiens, UniProt P27338).
T2 sequence (P27338 1-520): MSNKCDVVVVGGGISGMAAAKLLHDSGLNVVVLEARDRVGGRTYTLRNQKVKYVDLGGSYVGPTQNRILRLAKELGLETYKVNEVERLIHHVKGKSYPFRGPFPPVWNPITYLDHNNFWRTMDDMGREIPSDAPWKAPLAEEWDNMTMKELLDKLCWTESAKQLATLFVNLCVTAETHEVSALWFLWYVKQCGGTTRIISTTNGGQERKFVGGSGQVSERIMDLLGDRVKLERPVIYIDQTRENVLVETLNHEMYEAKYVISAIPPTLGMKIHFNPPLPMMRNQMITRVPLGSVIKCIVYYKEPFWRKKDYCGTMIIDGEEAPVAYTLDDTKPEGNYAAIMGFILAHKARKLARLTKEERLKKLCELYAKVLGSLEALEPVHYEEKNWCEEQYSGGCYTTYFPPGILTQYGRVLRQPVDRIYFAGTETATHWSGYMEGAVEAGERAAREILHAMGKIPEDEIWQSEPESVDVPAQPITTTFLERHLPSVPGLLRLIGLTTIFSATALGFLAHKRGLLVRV
Put plainly: Metabolite formation by recombinant human MAOB. The note with it: trazodone 4 μM; 37 °C, 40 min.

Data set [7] deals with T3, CYP2D4 (Rattus norvegicus, UniProt Q64680).
T3 sequence (Q64680 1-500): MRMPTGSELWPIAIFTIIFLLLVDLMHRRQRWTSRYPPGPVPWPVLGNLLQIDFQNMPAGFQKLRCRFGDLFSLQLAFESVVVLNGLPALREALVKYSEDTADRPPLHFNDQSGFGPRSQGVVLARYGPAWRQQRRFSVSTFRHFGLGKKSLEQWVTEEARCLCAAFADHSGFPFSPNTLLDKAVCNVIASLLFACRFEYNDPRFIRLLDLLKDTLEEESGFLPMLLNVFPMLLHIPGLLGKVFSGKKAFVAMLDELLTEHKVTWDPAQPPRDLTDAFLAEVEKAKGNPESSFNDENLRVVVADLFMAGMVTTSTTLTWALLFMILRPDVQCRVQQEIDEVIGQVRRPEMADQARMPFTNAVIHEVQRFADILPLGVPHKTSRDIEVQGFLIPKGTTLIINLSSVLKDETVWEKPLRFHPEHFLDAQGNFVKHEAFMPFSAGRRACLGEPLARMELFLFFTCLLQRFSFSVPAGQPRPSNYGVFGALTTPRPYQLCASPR
The data set is described as follows: Metabolite formation by recombinant rat CYP2D4. The note with it: trazodone 4 μM; NADPH; 37 °C, 40 min. On the procedure:
as §1

Data set [8] has as its target T4, MAOA (Homo sapiens, UniProt P21397).
T4 sequence (P21397 1-527): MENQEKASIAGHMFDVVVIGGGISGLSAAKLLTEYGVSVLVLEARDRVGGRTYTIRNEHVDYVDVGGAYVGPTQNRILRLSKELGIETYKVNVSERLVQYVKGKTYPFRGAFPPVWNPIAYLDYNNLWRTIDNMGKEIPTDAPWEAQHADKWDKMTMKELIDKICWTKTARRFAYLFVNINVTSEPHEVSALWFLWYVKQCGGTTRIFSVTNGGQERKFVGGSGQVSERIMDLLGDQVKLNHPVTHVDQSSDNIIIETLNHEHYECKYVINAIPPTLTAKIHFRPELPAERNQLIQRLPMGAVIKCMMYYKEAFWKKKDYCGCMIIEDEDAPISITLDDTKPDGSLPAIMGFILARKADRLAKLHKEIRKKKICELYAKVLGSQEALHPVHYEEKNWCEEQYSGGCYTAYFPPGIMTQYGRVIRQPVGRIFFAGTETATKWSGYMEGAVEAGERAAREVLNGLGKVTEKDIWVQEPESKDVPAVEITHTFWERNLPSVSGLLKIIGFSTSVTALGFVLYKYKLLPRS
The data set is described as follows: Metabolite formation by recombinant human MAOA. The note with it: trazodone 4 μM; 37 °C, 40 min.

Sequence of CYP3A5 (P20815 whole entry): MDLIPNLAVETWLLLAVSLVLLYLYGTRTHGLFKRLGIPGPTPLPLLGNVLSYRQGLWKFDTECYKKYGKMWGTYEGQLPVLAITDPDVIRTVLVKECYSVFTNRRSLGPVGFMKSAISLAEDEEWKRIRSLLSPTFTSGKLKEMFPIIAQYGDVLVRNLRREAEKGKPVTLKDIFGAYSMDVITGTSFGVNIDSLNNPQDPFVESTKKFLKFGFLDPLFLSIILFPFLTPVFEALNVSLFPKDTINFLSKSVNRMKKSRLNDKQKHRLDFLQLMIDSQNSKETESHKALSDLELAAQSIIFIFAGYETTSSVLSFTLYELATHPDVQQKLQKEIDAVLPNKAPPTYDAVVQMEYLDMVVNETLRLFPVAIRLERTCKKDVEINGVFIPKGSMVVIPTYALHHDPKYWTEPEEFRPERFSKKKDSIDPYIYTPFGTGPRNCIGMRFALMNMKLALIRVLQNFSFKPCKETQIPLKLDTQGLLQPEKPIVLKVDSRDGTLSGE
Sequence of CYP2E1 (P05181 whole entry): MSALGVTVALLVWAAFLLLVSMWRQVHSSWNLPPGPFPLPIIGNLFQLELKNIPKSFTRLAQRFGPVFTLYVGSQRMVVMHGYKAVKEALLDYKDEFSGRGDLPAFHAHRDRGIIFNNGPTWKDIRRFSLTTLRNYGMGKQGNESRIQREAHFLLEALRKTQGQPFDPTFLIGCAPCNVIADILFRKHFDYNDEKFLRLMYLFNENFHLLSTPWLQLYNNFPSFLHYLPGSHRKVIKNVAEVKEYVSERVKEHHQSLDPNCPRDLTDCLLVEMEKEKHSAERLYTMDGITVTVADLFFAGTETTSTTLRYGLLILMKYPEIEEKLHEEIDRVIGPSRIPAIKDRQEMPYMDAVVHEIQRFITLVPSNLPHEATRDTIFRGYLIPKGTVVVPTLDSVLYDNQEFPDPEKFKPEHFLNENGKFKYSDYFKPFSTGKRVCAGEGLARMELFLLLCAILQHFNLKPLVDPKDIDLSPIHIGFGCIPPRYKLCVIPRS
Sequence of CYP2D6 (P10635 whole entry): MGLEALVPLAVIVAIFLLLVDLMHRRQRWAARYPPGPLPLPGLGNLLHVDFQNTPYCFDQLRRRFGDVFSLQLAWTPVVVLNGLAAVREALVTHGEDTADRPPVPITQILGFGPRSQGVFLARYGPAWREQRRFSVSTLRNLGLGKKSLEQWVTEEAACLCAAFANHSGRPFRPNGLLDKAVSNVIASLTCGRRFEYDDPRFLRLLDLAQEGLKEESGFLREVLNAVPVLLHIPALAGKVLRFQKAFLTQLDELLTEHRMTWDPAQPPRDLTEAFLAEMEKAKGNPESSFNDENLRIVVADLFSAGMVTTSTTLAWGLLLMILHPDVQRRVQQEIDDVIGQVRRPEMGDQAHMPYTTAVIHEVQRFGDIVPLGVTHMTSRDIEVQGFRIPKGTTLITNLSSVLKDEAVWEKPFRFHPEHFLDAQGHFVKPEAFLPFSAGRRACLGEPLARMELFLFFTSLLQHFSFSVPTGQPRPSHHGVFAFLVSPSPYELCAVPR

On to `O=c1n(CCCN2CCNCC2)nc2ccccn12` [Metabolite M15], for which the “Formation of trazodone phase I metabolite by recombinant human FMO3 (as LC/MS peak areas)” value in data set [1] amounted to 0. For the same compound, in data set [2], the “Formation of trazodone phase I metabolite by recombinant rat CYP2D18 (as LC/MS peak areas)” value is 134. Moreover, the “Formation of trazodone phase I metabolite by recombinant human CYP2D6 (as LC/MS peak areas)” value in data set [3] is 0. For the same compound, the “Formation of trazodone phase I metabolite by recombinant human CYP3A5 (as LC/MS peak areas)” value in data set [4] came to 3343. Also, the “Formation of trazodone phase I metabolite by recombinant human CYP2E1 (as LC/MS peak areas)” value in data set [5] is listed as 0. For the same compound, in data set [6], the “Formation of trazodone phase I metabolite by recombinant human MAOB (as LC/MS peak areas)” value amounted to 0. For the same compound, the “Formation of trazodone phase I metabolite by recombinant rat CYP2D4 (as LC/MS peak areas)” value in data set [7] came out at 184. The “Formation of trazodone phase I metabolite by recombinant human MAOA (as LC/MS peak areas)” value in data set [8] was 0.

`O=c1n(CCCO)nc2ccccn12` [Metabolite M20]: the “Formation of trazodone phase I metabolite by recombinant human FMO3 (as LC/MS peak areas)” value in data set [1] is 0. Moreover, the “Formation of trazodone phase I metabolite by recombinant rat CYP2D18 (as LC/MS peak areas)” value in data set [2] is listed as 240. In data set [3], the “Formation of trazodone phase I metabolite by recombinant human CYP2D6 (as LC/MS peak areas)” value amounted to 0. In data set [4], the “Formation of trazodone phase I metabolite by recombinant human CYP3A5 (as LC/MS peak areas)” value turned out to be 108. Further, the “Formation of trazodone phase I metabolite by recombinant human CYP2E1 (as LC/MS peak areas)” value in data set [5] is given as 0. For the same compound, the “Formation of trazodone phase I metabolite by recombinant human MAOB (as LC/MS peak areas)” value in data set [6] was 0. Further, in data set [7], the “Formation of trazodone phase I metabolite by recombinant rat CYP2D4 (as LC/MS peak areas)” value came to 538. The “Formation of trazodone phase I metabolite by recombinant human MAOA (as LC/MS peak areas)” value in data set [8] is 0.

Consider `Clc1cccc(N2CCNCC2)c1` [mCPP, m-chlorophenylpiperazine], for which, in data set [1], the “Formation of trazodone phase I metabolite by recombinant human FMO3 (as LC/MS peak areas)” value is reported as 4. Moreover, in data set [2], the “Formation of trazodone phase I metabolite by recombinant rat CYP2D18 (as LC/MS peak areas)” value is 1962. The “Formation of trazodone phase I metabolite by recombinant human CYP2D6 (as LC/MS peak areas)” value in data set [3] was 0. Moreover, in data set [4], the “Formation of trazodone phase I metabolite by recombinant human CYP3A5 (as LC/MS peak areas)” value was found to be 16847. Also, in data set [5], the “Formation of trazodone phase I metabolite by recombinant human CYP2E1 (as LC/MS peak areas)” value is on record as 16. Also, the “Formation of trazodone phase I metabolite by recombinant human MAOB (as LC/MS peak areas)” value in data set [6] is recorded as 20. The “Formation of trazodone phase I metabolite by recombinant rat CYP2D4 (as LC/MS peak areas)” value in data set [7] was determined as 3166. In data set [8], the “Formation of trazodone phase I metabolite by recombinant human MAOA (as LC/MS peak areas)” value was found to be 28.
